Results: US8969586B2 (Bristol-Myers Squibb Company, priority 2011, dated 2015)

These compounds were tested against Human CYP17 (Homo sapiens (Human), UniProt P05093) (assay: CYP17 Total SPA Assay). Settings: microsomes from HEK2 cells stably transfected with CYP17; 3H-Pregnenolone 1 uM, NADPH 2 mM; 45 minutes at room temperature.
Format: biochemical
Procedure: The assays were performed in U-bottom 384-well optiplates. The final assay volume was 15 μl prepared from 7.5 μl additions of microsomes (prepared as a high-speed pellet from homogenized HEK2 cells stably transfected with CYP17), substrates (3H-Pregnenolone and NADPH) and test compounds in assay buffer (50 mM Potassium phosphate pH 7.2, 10% glycerol). The reaction was initiated by the combination of the microsomes and substrates in wells containing compound. The reaction was incubated at room temperature for 45 minutes and terminated by adding 7.5 μl of 0.2N HCl to each well. Following an incubation period of 10 minutes, anti-DHEA-coated SPA beads were added to the terminated reaction. The plate was sealed and incubated overnight with shaking at 4° C. The beads were allowed to settle in the plate for 1 hour and the plate read on a TOPCOUNT® (Perkin-Elmer) plate reader.
Inhibition data were calculated by comparison to no enzyme control reactions for 100% inhibition and vehicle-only reactions for 0% inhibition. The final concentration of reagents in the assays are NADPH, 2 mM; 3H-Pregnenolone, 1 uM; microsomes, 1.25 ug/ml; Anti-DHEA-SPA beads (0.125 mg/well) in 0.5% Triton X-100 and DMSO, 0.05%. Dose response curves were generated to determine the concentration required inhibiting 50% of enzyme activity (IC50). Compounds were dissolved at 10 mM in dimethylsulfoxide (DMSO) and evaluated at eleven concentrations, each in duplicate. IC50 values were derived by non-linear regression analysis.
Table 5 below lists the IC50 values for the following examples of this invention measured in the Total CYP17 SPA Assay hereinabove.

Chain of Human CYP17 (P05093 whole entry): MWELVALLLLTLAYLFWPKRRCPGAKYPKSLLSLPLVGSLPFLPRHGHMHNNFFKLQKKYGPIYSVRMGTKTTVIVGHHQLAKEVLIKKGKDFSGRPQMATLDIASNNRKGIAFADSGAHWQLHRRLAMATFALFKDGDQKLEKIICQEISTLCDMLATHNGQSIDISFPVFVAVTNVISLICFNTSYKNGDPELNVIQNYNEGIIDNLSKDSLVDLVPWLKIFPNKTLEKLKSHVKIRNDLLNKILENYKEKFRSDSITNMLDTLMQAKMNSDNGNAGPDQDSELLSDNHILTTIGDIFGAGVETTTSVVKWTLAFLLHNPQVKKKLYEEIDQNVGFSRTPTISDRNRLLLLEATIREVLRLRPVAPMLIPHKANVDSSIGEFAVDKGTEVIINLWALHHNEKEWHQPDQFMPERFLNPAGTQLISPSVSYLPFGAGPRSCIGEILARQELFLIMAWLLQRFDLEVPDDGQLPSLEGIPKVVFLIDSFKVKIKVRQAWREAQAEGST

First: Cc1ccncc1-c1cccc2c(-c3ccccc3)noc12 [Example 1, 7-(4-Methylpyridin-3-yl)-3-phenylbenzo[d]isoxazole]
Second: Cc1ncncc1-c1cccc2c(-c3ccccc3)noc12 [Example 4, 7-(4-Methylpyrimidin-5-yl)-3-phenylbenzo[d]isoxazole]
The IC50 of the first is 320-fold lower: 0.0011 µM for the first, 0.357 µM for the second. The first is the more potent here.

Going from FC(F)(F)COc1ncncc1-c1cccc2c(-c3cnccn3)noc12 [Example 26, 3-(Pyrazin-2-yl)-7-(4-(2,2,2-trifluoroethoxy)pyrimidin-5-yl)benzo[d]isoxazole] to Clc1ccccc1-c1noc2c(-c3cncnc3-n3nccn3)cccc12 [Example 57, 7-(4-(2H-1,2,3-Triazol-2-yl)pyrimidin-5-yl)-3-(2-chlorophenyl)benzo[d]isoxazole], the IC50 rises from 0.065 µM to 0.524 µM (8.1-fold). The first is the more potent here.

Compared with COc1ccc(COc2noc3c(-c4cnccc4C)cccc23)cc1 [Example 129, 3-(4-methoxybenzyloxy)-7-(4-methylpyridin-3-yl)benzo[d] isoxazole], Cc1ccncc1-c1cccc2c(OCc3ccc(Cl)cc3)noc12 [Example 128, 3-(4-chlorobenzyloxy)-7-(4-methylpyridin-3-yl)benzo[d] isoxazole] is 3.2-fold higher in IC50: 0.079 µM for the first, 0.251 µM for the second. The first is the more potent here.

Going from Cc1ncncc1-c1ccnc2c(-c3ccc(F)cc3)csc12 [Example 98, 3-(4-Fluorophenyl)-7-(4-methylpyrimidin-5-yl)thieno[3,2-b]pyridine] to Fc1ccc(-c2csc3c(-c4cncnc4C4CC4)ccnc23)cc1 [Example 99, 7-(4-Cyclopropylpyrimidin-5-yl)-3-(4-fluorophenyl)thieno[3,2-b]pyridine], the IC50 falls from 0.008 µM to 0.004 µM (2-fold).

First: Cc1ccncc1-c1cccc2c(OCc3ccc4ccccc4c3)noc12 [Example 124, 7-(4-methylpyridin-3-yl)-3-(naphthalen-2-ylmethoxy)benzo [d]isoxazole]
Second: Cc1ccncc1-c1cccc2c(-c3ccc(F)cc3)noc12 [Example 6, 3-(4-Fluorophenyl)-7-(4-methylpyridin-3-yl)benzo[d]isoxazole]
The IC50 of the first is 190-fold higher: 0.611 µM for the first, 0.0032 µM for the second. The second is the more potent here.

Going from Cc1ccncc1-c1ccnc2c(-c3ccc(F)cc3)noc12 [Example 86, 3-(4-Fluorophenyl)-7-(4-methylpyridin-3-yl)isoxazolo[4,5-b]pyridine] to Fc1ccc(-c2noc3c(-c4cncn5cccc45)cccc23)cc1 [Example 14, 3-(4-Fluorophenyl)-7-(pyrrolo[1,2-c]pyrimidin-4-yl)benzo[d]isoxazole], the IC50 rises from 0.0039 µM to 0.192 µM (49-fold). The first is the more potent here.

Compared with Nc1ncncc1-c1ccnc2c(-c3ccc(F)cc3Cl)csc12 [Example 103, 5-(3-(2-Chloro-4-fluorophenyl)thieno[3,2-b]pyridin-7-yl)pyrimidin-4-amine], Cc1ccncc1-c1ccnc2c(-c3nccs3)csc12 [Example 94, 7-(4-Methylpyridin-3-yl)-3-(thiazol-2-yl)thieno[3,2-b]pyridine] is 19-fold higher in IC50: 0.004 µM for the first, 0.076 µM for the second.

Compared with Clc1ccncc1-c1cccc2c(C3CC3)noc12 [Example 30, 7-(4-Chloropyridin-3-yl)-3-cyclopropylbenzo[d]isoxazole], Cc1ccncc1-c1cccc2c(OCCN(C)C)noc12 [Example 68] is 11-fold higher in IC50: 0.048 µM for the first, 0.524 µM for the second. The first is the more potent here.

Fc1ccc(-c2csc3c(-c4cncc5ccccc45)cccc23)cc1 [Example 109, 4-(3-(4-Fluorophenyl)benzo[b]thiophen-7-yl)isoquinoline] and Clc1ccccc1-c1noc2c(-c3cncnc3-n3cncn3)cccc12 [Example 52, 7-(4-(1H-1,2,4-Triazol-1-yl)pyrimidin-5-yl)-3-(2-chlorophenyl)benzo[d]isoxazole] are within 1.5-fold of each other in IC50: 0.056 µM for the first, 0.042 µM for the second.
